Where a SMILES comes first, the peptide text is derived from it. Bridges are numbered along the chain shown (N, C = ends). [ ]: non-standard residue; d: D form. Tic = O=C(O)[C@@H]1Cc2ccccc2CN1; Pen = CC(C)(S)[C@H](N)C(=O)O; Mpa = O=C(O)CCS
Experiments:
α5 β1 (FnR) = biological target: T1, α5 β1 (FnR) (Homo sapiens, UniProt P05556+P08648); assay: α5 β1 ELISA (competitive receptor binding); settings: receptor ELISAs compared
T1 construct: Fibronectin receptor (FnR) was purified from 100 mM octyl-glucopyranoside-extracted human placenta; from tissue; host or cells: human placenta
Experimental: (§1) Peptide binding to purified human αV β5 and αV β3, which are VnR's, and to α5 β1, which is a FnR, was determined using competitive ELISA assays as described below.
Peptide binding to purified human α5 β1 (FnR) also was determined using a competitive ELISA. In these assays, Fn was immobilized to the wells and the binding of solubilized FnR in the presence of various concentrations of a peptide analogue was determined using a mouse monoclonal antibody to human β1 (clone P4C10; Gibco) and specific binding was visualized using a second antibody.
Microtiter wells were coated at RT by adding 100 μl of 2 μg/ml human Fn in TBS and incubating the plates overnight at 4° C. Following incubation, the plates were washed 3× with TBS/"TWEEN-20". RGD peptides were diluted in TBS containing 20 mM OG and 2 mM MnCl2 and 50 μl was added to wells at 10-fold serial dilutions. FnR was diluted in the same buffer and 50 μl was added to each well.
The plates were incubated for 3 hr at RT and washed with 300 μl TBS/"TWEEN-20". Bound receptor was incubated with 100 μl of the monoclonal anti-β1 antibody for 2 hr, then washed 3× with TBS/"TWEEN-20". […] The amount of bound second antibody was determined as described above.
The IC50 values for various RGD peptides were calculated by determining the concentration of a peptide that inhibited binding of Vn to αV β5 or αV β3 or of Fn to α5 β1 by 50%. […]

[1] = tested on: αV β3 integrin, osteoclasts; assay: series of assays of Example II for potency and selectivity (summary, FIG. 2)
Source text: Peptides of the RGDNTic (SEQ ID NO: 56) pharmacophore group are characterized, in general, as having increased potency, whereas the peptides of the pharmacophore RGDDV (SEQ ID NO: 1) group generally have higher receptor selectivity. […] As used herein, the term "potency" or "potent" means that a peptide of the invention is active at a relatively low concentration in the assays described in Examples II and III. A potent peptide of the invention can be identified, for example, using the assays described in Examples II and III.
Selectivity can be due, for example, to the ability of a peptide of the invention to bind to αV β3 with greater affinity than it binds to other integrins. Thus, in addition to having selectivity, for example, for osteoclast binding to a matrix, a peptide of the invention also can display receptor selectivity and, therefore, more specifically alter receptor-mediated binding to a matrix. As used herein, the term "receptor selectivity" means that a peptide of the invention can bind to one receptor with greater affinity than it can bind to another receptor.

Swiss-Webster mice = assay: PTH-induced hypercalcemia assay; format: in vivo; settings: peptide infused 4 hr at various doses, 0.2 mg PTH/kg i.v., FIG. 9
Source text: Parathyroid hormone (PTH) activates osteoclasts, which are involved in bone resorption. Associated with the increased osteoclast activity is an increase in serum calcium. The PTH-induced hypercalcemia assay measures the level of serum calcium, which is an indication of bone resorption in a subject (Fischer et al., Endocrinology 132:1411-1413 (1993), which is incorporated herein by reference).
Swiss-Webster mice, which had been parathyroidectomized two weeks prior to beginning the assay, were obtained from Taconic Lab Animals and Services (Germantown N.Y.). Femoral vein catheters (PE-50 fused with PE10 polyethylene tubing; Becton Dickinson; Parsippany, N.J.) were installed in the mice, flushed and locked with heparinized saline (1:10), sutured to adjacent muscle and internalized within the inguinal space of the incision before closing the incision with wound clips. […]
The experiment was initiated by feeding the mice a calcium-deficient diet overnight, then injecting the mice the following morning with a bolus of 0.2 mg PTH/kg (hPTH 1-34; Bachem; Torrance Calif.), intravenously. […] Various doses of a peptide or vehicle were infused into an animal for 4 hr, then ionized serum calcium again was measured. […] Serum calcium measurements were expressed as the difference between the value 30 min before the PTH pulse and 4 hr after peptide infusion was started. […]

osteoclasts = settings: cited from earlier work
[2] = half-life of peptide in serum; settings: in vivo
Source text: Increased stability of a disulfide bonded peptide of the invention also can be conferred by incorporating a hydrophobic amino acid residue such as phenylalanine at position X1 or X8 or both X1 and X8 in an RGDNTic (SEQ ID NO: 56) or RGDDV (SEQ ID NO: 1) pharmacophore as disclosed herein. The presence of such a residue can stabilize the disulfide bond against enzymatic degradation (see Bauer et al., Life Sciences 31:1133-1140 (1982)). […] In addition, the half-life of a peptide in a subject can be determined, for example, by high performance liquid chromatography (HPLC) of serum samples collected from the subject at various times following administration of the peptide. One skilled in the art would know how to select appropriate elution buffers for HPLC based on the physico-chemical properties of a particular peptide.

αV β3 receptor = biological target: T2, αV β3 receptor (Homo sapiens, UniProt P05106+P06756); assay: αV β3 ELISA (competitive receptor binding); settings: receptor ELISAs compared
T2 construct: The αV β3 receptor was purified from octylglucopyranoside-extracted human placenta; from tissue; host or cells: human placenta
Experimental: as §1
Peptide binding to purified αV β3 receptor was determined by using a competitive ELISA, in which αV β3 receptor was immobilized and the binding of solubilized VN, in the presence of various concentrations of peptide analogue, was detected using a monoclonal mouse IgG anti-VN antibody and a labelled anti-mouse IgG conjugate. A monoclonal anti-VN antibody can be obtained using routine methods (see, for example, Harlow and Lane, Antibodies: A laboratory manual (Cold Spring Harbor Laboratory Press 1988), which is incorporated herein by reference).
96 well microtiter plates were coated overnight at RT with 100 μl/well of αV β3 receptor (0.5 μg/ml in 1×TBS, 4 mM octylglucoside, 1 mM CaCl2). The wells were blocked with 200 μl/well of 1% BSA in 1×TBS, 1 mM CaCl2 for at least 30 min. The plates were washed 2× with 1×TBS, 1 mM CaCl2. 50 μl peptide in 1×TBS, 1 mM CaCl2, 0.05% "TWEEN 20" polyoxyethylenesorbitan monolaurate was added in 10-fold serial dilutions. 50 μl of Vn in the same buffer then was added to each well.
The plates were incubated for 3 hr at RT, then washed 3× with 1×TBS, 0.05% "TWEEN 20" polyoxyethylenesorbitan monolaurate. […] The plates were read at 490 nm and the data analyzed by four parameter fit. […]

C[C@H](NC(=O)[C@@H]1CSSC(C)(C)[C@H](NC(=O)CN)C(=O)N[C@@H](C)C(=O)N[C@@H](C)C(=O)N[C@@H](CCCNC(=N)N)C(=O)NCC(=O)N[C@@H](CC(=O)O)C(=O)N[C@@H](CC(N)=O)C(=O)N2CCC[C@H]2C(=O)N1)C(=O)O [compound 310] (H-G[Pen]AARGDNPCA-OH; disulfide 2-10)
selectivity toward α5 β1 versus αV β5 (α5 β1 (FnR)): more selective toward α5 β1 than toward αV β5

CC(=O)N[C@H]1CSSC(C)(C)[C@@H](C(N)=O)NC(=O)[C@@H]2CCCN2C(=O)[C@H](CC(N)=O)NC(=O)[C@H](CC(=O)O)NC(=O)CNC(=O)[C@H](CCCNC(=N)N)NC1=O [compound 228] (Ac-CRGDNP[Pen]-NH2; disulfide 1-7)
receptor selectivity (summary classification) [1]: particularly receptor selective

CC(C)[C@@H]1NC(=O)[C@H](CC(=O)O)NC(=O)[C@H](CC(=O)O)NC(=O)CNC(=O)[C@H](CCCNC(=N)N)NC(=O)CCSSC[C@@H](C(N)=O)NC1=O [compound 191] ([Mpa]RGDDVC-NH2; disulfide 1-7)
effect on PTH-induced rise in serum ionized calcium (Swiss-Webster mice): decreased the PTH-induced rise in serum ionized calcium in a dose responsive manner

Echistatin
binding to osteoclasts (osteoclasts): nonselective

C[C@@H]1NC(=O)[C@H](C)NC(=O)[C@@H](NC(=O)CN)C(C)(C)SSC[C@@H](C(N)=O)NC(=O)[C@H]([C@@H](C)O)NC(=O)[C@H](CC(=O)O)NC(=O)[C@H](CC(=O)O)NC(=O)CNC(=O)[C@H](CCCNC(=N)N)NC1=O [compound 186] (H-G[Pen]AARGDDTC-NH2; disulfide 2-10)
receptor selectivity (summary classification) [1]: particularly receptor selective

CC(C)[C@@H]1NC(=O)[C@H](CC(=O)O)NC(=O)[C@H](CC(=O)O)NC(=O)CNC(=O)[C@H](CCCNC(=N)N)NC(=O)[C@H](C)NC(=O)[C@H](CCCNC(=N)N)NC(=O)[C@@H](NC(=O)CN)C(C)(C)SSC[C@@H](C(=O)N[C@@H](C)C(=O)O)NC1=O [compound 138] (H-G[Pen]RARGDDVCA-OH; disulfide 2-10)
potency and selectivity together (summary classification) [1]: both potent and selective | receptor selectivity (summary classification) [1]: particularly receptor selective

CC(=O)N[C@@H](Cc1ccccc1)C(=O)N[C@H]1CSSC[C@@H](C(N)=O)NC(=O)[C@H](Cc2ccccc2)NC(=O)[C@H]([C@@H](C)O)NC(=O)[C@H](CC(=O)O)NC(=O)CNC(=O)[C@H](CCCNC(=N)N)NC1=O [peptide 220] (Ac-FCRGDTFC-NH2; disulfide 2-8)
half-life in serum [2]: relatively long

CC(=O)N[C@H]1CSSC[C@@H](C(N)=O)NC(=O)[C@@H]2Cc3ccccc3CN2C(=O)[C@H](CO)NC(=O)[C@H](CC(=O)O)NC(=O)CNC(=O)[C@H](CCCNC(=N)N)NC1=O [compound 812, Ac-CRGDS(Tic)Cs-NH2] (Ac-CRGDS[Tic]C-NH2; disulfide 1-7)
potency (summary classification) [1]: particularly potent | activity of peptides with minimally essential elements ([1]; FIG. 2): demonstrate activity

CC(=O)N[C@@H]1C(=O)N[C@@H](Cc2ccccc2)C(=O)N[C@@H](C)C(=O)N[C@@H](CCCNC(=N)N)C(=O)NCC(=O)N[C@@H](CC(=O)O)C(=O)N[C@@H](CC(N)=O)C(=O)N2CCC[C@H]2C(=O)N[C@H](C(N)=O)CSSC1(C)C [peptide 214] (Ac-[Pen]FARGDNPC-NH2; disulfide 1-9)
potency (summary classification) [1]: particularly potent | relative affinity for αV β3, α5 β1 and αV β5 (αV β3 receptor): higher affinity for αV β3 and α5 β1 than for αV β5

Reference: patent publication US5770565A, “Peptides for reducing or inhibiting bone resorption” (priority 1994, dated 1998)
